Values of other authors as cited in patent publication EP0423943A2, “Use of collagenase inhibitors in the treatment of demyelinating diseases, in particular multiple sclerosis” (Beecham Group p.l.c., priority 1989, dated 1991).

System: metalloprotease acting at neutral pH identified as a component of myelin membranes
Conditions: myelin membrane metalloprotease, literature statement

inhibition of the enzyme | Compound
not | CC(C)C[C@H](NP(=O)(O)O[C@@H]1O[C@@H](C)[C@H](O)[C@@H](O)[C@H]1O)C(=O)N[C@@H](Cc1c[nH]c2ccccc12)C(=O)O [phosphoramidon]
inhibited | c1cnc2c(c1)ccc1cccnc12 [1,10-phenanthroline]
